Results reported in ChEMBL document CHEMBL1201862, “PubChem BioAssay data set” (2004).
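Briefly, cells in 96-well plates were exposed to five compound concentrations for 48 h, and endpoints were estimated by linear interpolation. GI50 marks 50% less growth.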 The source made the active and inactive calls. Cut-off read from the data, not from the text of the source: active = GI50 up to about 1.1 µM and inactive = higher.

Tests used:
Assay in all cases: NCI anticancer screen, dose series, 48 h
M19-MEL = tested on: M19-MEL
SN12C = tested on: SN12C
COLO 205 = tested on: COLO 205
M14 = tested on: M14
DMS-273 = tested on: DMS-273
RXF 393 = tested on: RXF 393
EKVX = tested on: EKVX
NCI-H460 = tested on: NCI-H460
OVCAR-8 = tested on: OVCAR-8
HOP-92 = tested on: HOP-92
U-251 = tested on: U-251
NCI-H23 = tested on: NCI-H23
SNB-19 = tested on: SNB-19
OVCAR-5 = tested on: OVCAR-5
HCC 2998 = tested on: HCC 2998
MDA-MB-231 = tested on: MDA-MB-231
PC-3 = tested on: PC-3
DU-145 = tested on: DU-145
NCI/ADR-RES = tested on: NCI/ADR-RES
MDA-MB-435 = tested on: MDA-MB-435

SMILES | GI50 (M19-MEL) | GI50 (SN12C) | GI50 (COLO 205) | GI50 (M14) | GI50 (DMS-273) | GI50 (RXF 393) | GI50 (EKVX) | GI50 (NCI-H460) | GI50 (OVCAR-8) | GI50 (HOP-92) | GI50 (U-251) | GI50 (NCI-H23) | GI50 (SNB-19) | GI50 (OVCAR-5) | GI50 (HCC 2998) | GI50 (MDA-MB-231) | GI50 (PC-3) | GI50 (DU-145) | GI50 (NCI/ADR-RES) | GI50 (MDA-MB-435)
CCC1(CC)C(=O)NC(=S)N=C1N | > 100 µM (inactive) | > 100 µM (inactive) | > 100 µM (inactive) | > 100 µM (inactive) | > 100 µM (inactive) | > 100 µM (inactive) | > 100 µM (inactive) | > 100 µM (inactive) | > 100 µM (inactive) | > 100 µM (inactive) | > 100 µM (inactive) | > 100 µM (inactive) | > 100 µM (inactive) | > 100 µM (inactive) | – | – | – | – | – | –
Cc1ccc(NC(=O)CC/C(CC(=O)C(C)(C)C)=N\Nc2ccc([N+](=O)[O-])cc2[N+](=O)[O-])cc1C | 47.5 µM (inactive) | – | > 100 µM (inactive) | 0.0129 µM (active) | – | 67.5 µM (inactive) | > 100 µM (inactive) | 56.8 µM (inactive) | 59.6 µM (inactive) | 27 µM (inactive) | 58.1 µM (inactive) | 46.2 µM (inactive) | > 100 µM (inactive) | > 100 µM (inactive) | – | – | – | – | – | –
COc1cc(C2C(Cl)C(=O)N2NC(=O)Cc2ccccc2)ccc1O (stereo not given) | > 100 µM (inactive) | > 100 µM (inactive) | > 100 µM (inactive) | > 100 µM (inactive) | > 100 µM (inactive) | 59 µM (inactive) | > 100 µM (inactive) | > 100 µM (inactive) | > 100 µM (inactive) | – | 79.3 µM (inactive) | 45.1 µM (inactive) | 47.3 µM (inactive) | > 100 µM (inactive) | 57.5 µM (inactive) | – | – | – | – | –
CCCC(=O)OCC1OC(n2cc(F)c(=O)[nH]c2=O)CC1O (stereo not given) | – | 0.181 µM (active) | 2.22 µM (inactive) | 0.314 µM (active) | – | > 10 µM (inactive) | > 10 µM (inactive) | 0.0221 µM (active) | 0.118 µM (active) | 1.1 µM (active) | 1.79 µM (inactive) | 0.127 µM (active) | > 10 µM (inactive) | > 8.11 µM (inactive) | 0.00381 µM (active) | > 9.14 µM (inactive) | 0.746 µM (active) | 0.255 µM (active) | 1.7 µM (inactive) | > 7.98 µM (inactive)
N#CC(c1ccccn1)c1nc2ccccc2[nH]1 (stereo not given) | > 100 µM (inactive) | > 100 µM (inactive) | > 100 µM (inactive) | > 100 µM (inactive) | – | – | > 100 µM (inactive) | 85.5 µM (inactive) | 84.5 µM (inactive) | – | > 100 µM (inactive) | > 100 µM (inactive) | > 100 µM (inactive) | > 100 µM (inactive) | > 100 µM (inactive) | – | – | – | – | –
COc1ccc(C(C2=C(O)CC(C)OC2=O)C2=C(O)CC(C)OC2=O)cc1 (stereo not given) | > 100 µM (inactive) | > 100 µM (inactive) | > 100 µM (inactive) | > 100 µM (inactive) | > 100 µM (inactive) | – | > 100 µM (inactive) | > 100 µM (inactive) | > 100 µM (inactive) | – | > 100 µM (inactive) | > 100 µM (inactive) | > 100 µM (inactive) | > 100 µM (inactive) | > 100 µM (inactive) | – | – | – | – | –
OCC(O)C(OC1OC(CO)C(O)C(O)C1O)c1nn(-c2ccc(F)cc2)c2nc3cc(Cl)c(Cl)cc3cc12 (stereo not given) | > 100 µM (inactive) | > 100 µM (inactive) | – | > 100 µM (inactive) | – | > 100 µM (inactive) | > 100 µM (inactive) | > 100 µM (inactive) | > 100 µM (inactive) | – | > 100 µM (inactive) | > 100 µM (inactive) | > 100 µM (inactive) | > 100 µM (inactive) | > 100 µM (inactive) | – | – | – | – | –
COc1ccc2[nH]c3c4c(c5cc(C(C)(C)C)ccc5c3c2c1)C(=O)N(c1ccccc1)C4=O | > 100 µM (inactive) | – | > 100 µM (inactive) | 54.3 µM (inactive) | – | > 100 µM (inactive) | > 100 µM (inactive) | > 100 µM (inactive) | 44.7 µM (inactive) | – | 27.7 µM (inactive) | > 100 µM (inactive) | > 100 µM (inactive) | > 100 µM (inactive) | 21.3 µM (inactive) | – | – | – | – | –
CC(C)NC(=O)OCCN=c1c2ccccc2ccc2ccccc12 | – | 34.8 µM (inactive) | 27.7 µM (inactive) | 36 µM (inactive) | – | 36.8 µM (inactive) | 35 µM (inactive) | 45.6 µM (inactive) | 57.1 µM (inactive) | 27.2 µM (inactive) | 38.3 µM (inactive) | > 100 µM (inactive) | 24.4 µM (inactive) | 88.9 µM (inactive) | 40 µM (inactive) | 32.1 µM (inactive) | 23.8 µM (inactive) | 56.2 µM (inactive) | 32.6 µM (inactive) | 46.6 µM (inactive)
COc1ccc(/C=N/N=C(\N)NO)c(Cl)c1O | 1.48 µM (inactive) | 27.4 µM (inactive) | 33 µM (inactive) | – | – | 16.5 µM (inactive) | 10 µM (inactive) | – | 12.2 µM (inactive) | 35.2 µM (inactive) | 26.8 µM (inactive) | 23.7 µM (inactive) | 41 µM (inactive) | 1.91 µM (inactive) | 14.6 µM (inactive) | – | – | – | – | –
Cc1ccccc1NC(=O)/C=N/O | > 100 µM (inactive) | > 100 µM (inactive) | > 100 µM (inactive) | > 100 µM (inactive) | > 100 µM (inactive) | > 100 µM (inactive) | 22 µM (inactive) | – | > 100 µM (inactive) | – | > 100 µM (inactive) | > 100 µM (inactive) | > 100 µM (inactive) | > 100 µM (inactive) | > 100 µM (inactive) | – | – | – | – | –
O=C1C(Cl)C(c2ccccc2O)N1n1cnc2ccccc2c1=O (stereo not given) | 97.3 µM (inactive) | 7.08 µM (inactive) | 30.1 µM (inactive) | 80.2 µM (inactive) | 63.4 µM (inactive) | 22.7 µM (inactive) | 23.9 µM (inactive) | 35.2 µM (inactive) | 92.7 µM (inactive) | – | 43.3 µM (inactive) | 49 µM (inactive) | 63.8 µM (inactive) | > 100 µM (inactive) | > 100 µM (inactive) | – | – | – | – | –
O=[N+]([O-])C(=C(Sc1ccccc1)Sc1ccccc1)C(Cl)=C(Cl)Cl | – | 0.65 µM (active) | 0.157 µM (active) | 0.421 µM (active) | – | 0.413 µM (active) | 2.05 µM (inactive) | 5.74 µM (inactive) | 0.23 µM (active) | 1.29 µM (inactive) | 1.53 µM (inactive) | 1.24 µM (inactive) | 10.6 µM (inactive) | 0.486 µM (active) | 2.39 µM (inactive) | 0.188 µM (active) | 2.26 µM (inactive) | 1.11 µM (active) | 0.652 µM (active) | 0.334 µM (active)
COc1cc2c3c(n(Cc4ccccc4)c(=O)c2cc1OC)-c1ccccc1C3=O | – | 57.1 µM (inactive) | > 100 µM (inactive) | > 100 µM (inactive) | – | > 100 µM (inactive) | > 100 µM (inactive) | 26.7 µM (inactive) | > 100 µM (inactive) | > 100 µM (inactive) | 64 µM (inactive) | > 100 µM (inactive) | > 100 µM (inactive) | > 100 µM (inactive) | > 100 µM (inactive) | > 100 µM (inactive) | > 100 µM (inactive) | > 100 µM (inactive) | > 100 µM (inactive) | > 100 µM (inactive)
COC1CCC(OS(C)(=O)=O)C(CO)O1 (stereo not given) | > 100 µM (inactive) | > 100 µM (inactive) | – | > 100 µM (inactive) | – | > 100 µM (inactive) | > 100 µM (inactive) | > 100 µM (inactive) | > 100 µM (inactive) | > 100 µM (inactive) | > 100 µM (inactive) | > 100 µM (inactive) | – | > 100 µM (inactive) | > 100 µM (inactive) | – | – | – | – | –
O=C1C(Br)=CC2(C=C1Br)CCNC1=C2C(=O)c2cccnc2C1=O | – | 12.5 µM (inactive) | 16.4 µM (inactive) | 8.65 µM (inactive) | – | 4.92 µM (inactive) | 15 µM (inactive) | 4.13 µM (inactive) | 15.8 µM (inactive) | 16 µM (inactive) | 17.6 µM (inactive) | 4.07 µM (inactive) | 7.23 µM (inactive) | 17.4 µM (inactive) | 18 µM (inactive) | 14.1 µM (inactive) | 13.4 µM (inactive) | 11.4 µM (inactive) | 20.8 µM (inactive) | 1.89 µM (inactive)
COc1ccc(C2CC(=O)CC(c3ccc(OC)cc3)C23C(=O)NC(=O)NC3=O)cc1 (stereo not given) | – | 46.8 µM (inactive) | 32.1 µM (inactive) | 52.5 µM (inactive) | – | 45.9 µM (inactive) | 32.9 µM (inactive) | 35.8 µM (inactive) | 32.2 µM (inactive) | 25.1 µM (inactive) | 57.8 µM (inactive) | 23.4 µM (inactive) | 35.3 µM (inactive) | 56.4 µM (inactive) | 20.3 µM (inactive) | 39.1 µM (inactive) | 33.9 µM (inactive) | 48 µM (inactive) | 34.4 µM (inactive) | 22.7 µM (inactive)
CS/C(=N\c1ccccc1Cl)NC(=O)c1ccc(Br)cc1 | > 100 µM (inactive) | > 100 µM (inactive) | > 100 µM (inactive) | 24.6 µM (inactive) | – | 31.3 µM (inactive) | > 100 µM (inactive) | > 100 µM (inactive) | > 100 µM (inactive) | < 0.01 µM (active) | 39.5 µM (inactive) | > 100 µM (inactive) | 33.1 µM (inactive) | > 100 µM (inactive) | > 100 µM (inactive) | – | – | – | – | –
CC12CCC(=O)C[C@H]1CCC(OC=O)C2Br (stereo not given in full) | > 100 µM (inactive) | > 100 µM (inactive) | > 100 µM (inactive) | > 100 µM (inactive) | > 100 µM (inactive) | – | – | > 100 µM (inactive) | > 100 µM (inactive) | > 100 µM (inactive) | > 100 µM (inactive) | > 100 µM (inactive) | > 100 µM (inactive) | > 100 µM (inactive) | > 100 µM (inactive) | – | – | – | – | –
